# Measured values as given in patent publication US20260250250A1, “3-(SULPHONYL OR SULFONIMIDOYL)PROP-2-EN-1-YL]-2-OXO-1,2-DIHYDROPYRIDINE-3-CARBOXAMIDE DERIVATIVES” (Flinder Therapeutics B.V., priority 2022, published 2026).
# pIC50: −log10 of the molar value.
# Assays:
# [1] = target: T1, human E3 ubiquitin-protein ligase RNF31 (HOIP) (Homo sapiens, UniProt Q96EP0); experiment: Cell-free HTRF-based HOIP inhibition assay; format: biochemical
# T1 sequence (Q96EP0 695-1072 limits assumed): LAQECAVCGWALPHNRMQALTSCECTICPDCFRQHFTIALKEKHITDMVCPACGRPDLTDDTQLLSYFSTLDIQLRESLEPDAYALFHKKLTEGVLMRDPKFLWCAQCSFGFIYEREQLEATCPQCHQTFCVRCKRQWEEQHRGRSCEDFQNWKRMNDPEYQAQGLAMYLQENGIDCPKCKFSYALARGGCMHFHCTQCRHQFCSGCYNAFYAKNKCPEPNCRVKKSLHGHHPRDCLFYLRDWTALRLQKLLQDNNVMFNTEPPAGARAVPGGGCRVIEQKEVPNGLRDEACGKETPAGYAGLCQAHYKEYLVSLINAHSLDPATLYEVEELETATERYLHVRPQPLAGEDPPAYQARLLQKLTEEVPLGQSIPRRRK
# Summary of the method: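 Recombinant human HOIP fragment (E. coli) preincubated with compounds (100-0.005 μM, 1% DMSO) and E1 for 1 h at 25° C. E2 and substrates then added; reaction 2.5 h at 25° C. HTRF read-out, excitation 337 nm, emissions 665/620 nm.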
# [2] = test system: NF-κB signaling pathway; experiment: Cell-based dual luciferase NF-κB reporter assay (HEK293 cells, TNF stimulated); settings: Homo sapiens, HEK293
# Experimental: Dual-luciferase reporter assay was designed to find inhibitors of HOIP affecting NF-κB signaling pathway. The assay was performed in HEK293 cells which were transfected with plasmids coding for Firefly and NanoLuc luciferases. The NanoLuc luciferase plasmid contains NF-κB response element which determines its expression.
# The assay was run following standard dual-luciferase protocols. The assay consists of a few steps: • compounds were dispensed at a concentration range: 100-0.005 μM with a final DMSO concentration of 1% of final volume (25 μL); • cells were stimulated after 30 min with 2.5 ng/mL TNF; and • after 6 h Firefly and NanoLuc luciferase activities are determined according to the procedure described by the manufacturer of Nano-Glo Dual-Luciferase Reporter Assay System.
# [3] = test system: bladder carcinoma RT4 cell line; experiment: TNF-α-induced cytotoxicity assay (CellTiter-Glo viability); format: cell-based; settings: Homo sapiens, RT-4, 72 h
# Summary of the method: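 RT4 bladder carcinoma cells, 1000 per well, stimulated with 1.25 ng/mL TNFα together with compound for 72 h at 37° C., 5% CO2. Viability read by CellTiter-Glo luminescence, proportional to cellular ATP, as a measure of HOIP-dependent cytotoxicity.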
SMILES,pIC50 [1],pIC50 [2],pIC50 [3]
"O=C(NC/C=C/S(=O)(=O)c1ccc(Cl)cc1)c1cc2c([nH]c1=O)CCN(C(=O)OCC(F)F)C2 [Example 96, 2,2-difluoroethyl 3-{[(2E)-3-(4-chlorobenzenesulfonyl)prop-2-en-1-yl]carbamoyl}-2-oxo-1,2,5,6,7,8-hexahydro-1,6-naphthyridine-6-carboxylate]",≥ 6.00,≥ 6.00,≥ 5.00
"O=C(NC/C=C/S(=O)(=O)c1ccc(Cl)cc1)c1cc2c([nH]c1=O)CCN(C(=O)OC1COC1)C2 [Example 87, oxetan-3-vi 3-{[(2E)-3-(4-chlorobenzenesulfonyl)prop-2-en-1-yl]carbamoyl}-2-oxo-1,2,5,6,7,8-hexahydro-1,6-naphthyridine-6-carboxylate]",≥ 7.00,≥ 5.00,≥ 4.00
"N=S(=O)(/C=C/CNC(=O)c1cc2c([nH]c1=O)CCC(F)(F)C2)c1ccc(F)cc1 (stereo not drawn) [Example 59, 6,6-difluoro-N-[(2E)-3-[(4-fluorophenyl)(imino)oxo-λ^6-sulfanyl]prop-2-en-1-yl]-2-oxo-1,2,5,6,7,8-hexahydroquinoline-3-carboxamide]",≥ 6.00,≥ 5.00,≥ 6.00
"CC1(C)CC1COC(=O)N1CCc2[nH]c(=O)c(C(=O)NC/C=C/S(=O)(=O)c3ccccc3)cc2C1 (stereo not drawn) [Example 73, (2,2-dimethylcyclopropyl)methyl 3-{[(2E)-3-(benzenesulfonyl)prop-2-en-1-yl]carbamoyl}-2-oxo-1,2,5,6,7,8-hexahydro-1,6-naphthyridine-6-carboxylate]",≥ 7.00,≥ 6.00,≥ 6.00
"O=C(NC/C=C/S(=O)(=O)c1ccccc1)c1cc2c([nH]c1=O)CCCC2 [Example 7, N-[(2E)-3-(benzenesulfonyl)prop-2-en-1-yl]-2-oxo-1,2,5,6,7,8-hexahydroquinoline-3-carboxamide]",≥ 6.00,≥ 6.00,≥ 6.00

# Now from value to compound, other results behind:
pIC50 [1],pIC50 [2],SMILES,pIC50 [3]
≥ 6.00,≥ 6.00,"O=C(NC/C=C/S(=O)(=O)c1ccc(F)cc1F)c1cc(-c2ccccc2)c[nH]c1=O [Example 127, N-[(2E)-3-(2,4-difluorobenzenesulfonyl)prop-2-en-1-yl]-2-oxo-5-phenyl-1,2-dihydropyridine-3-carboxamide]",≥ 5.00
≥ 6.00,≥ 5.00,"COc1ccc(S(=N)(=O)/C=C/CNC(=O)c2cc3c([nH]c2=O)CCN(CC(F)(F)F)C3)cc1F (stereo not drawn) [Example 170, N-[(2E)-3-[(3-fluoro-4-methoxyphenyl)(imino)oxo-λ^6-sulfanyl]prop-2-en-1-yl]-2-oxo-6-(2,2,2-trifluoroethyl)-1,2,5,6,7,8-hexahydro-1,6-naphthyridine-3-carboxamide]",≥ 5.00
≥ 6.00,≥ 4.00,"O=C(NC/C=C/S(=O)(=O)c1ccccc1)c1cc2c([nH]c1=O)CCN(Cc1cccnn1)C2 [Example 123, N-[(2E)-3-(benzenesulfonyl)prop-2-en-1-yl]-2-oxo-6-[(pyridazin-3-yl)methyl]-1,2,5,6,7,8-hexahydro-1,6-naphthyridine-3-carboxamide]",≥ 4.00
≥ 6.00,≥ 5.00,"O=C(NC/C=C/S(=O)(=O)c1ccccc1)c1cc2c([nH]c1=O)CCN(C(=O)C1CC1c1ccccc1)C2 (stereo not drawn) [Example 125, N-[(2E)-3-(benzenesulfonyl)prop-2-en-1-yl]-2-oxo-6-(2-phenylcyclopropanecarbonyl)-1,2,5,6,7,8-hexahydro-1,6-naphthyridine-3-carboxamide]",≥ 5.00
≥ 6.00,≥ 4.00,"COCCS(=O)(=O)N1CCc2[nH]c(=O)c(C(=O)NC/C=C/S(=O)(=O)c3ccccc3)cc2C1 [Example 103, N-[(2E)-3-(benzenesulfonyl)prop-2-en-1-yl]-6-(2-methoxyethanesulfonyl)-2-oxo-1,2,5,6,7,8-hexahydro-1,6-naphthyridine-3-carboxamide]",≥ 4.00
